Source: paper PMC6930605, “Matrix Metalloproteinase Triple-Helical Peptide Inhibitors: Potential Cross-Reactivity with Caspase-11” (Molecules, 2019)

Legend:
caspase-11 = test: Caspase enzyme assay (residual caspase-11 activity); assay type: biochemical, mouse
MT1-MMP = biological target: MT1-MMP; design: method as in 2 sources, ref [19] = [19]; PMID 28394608; doi:10.1021/acs.jmedchem.7b00018; 19. Bhowmick M. Tokmina-Roszyk D. Onwuha-Ekpete L. Harmon K. Robichaud T. Fuerst R. Stawikowska R. Steffensen B. Roush W.R. Wong H. Second Generation Triple-Helical Peptide Transition State Analog Mat ||| ref [15],[19] = [15]; PMID 17672455; doi:10.1021/ja0715849; 15. Lauer-Fields J.L. Brew K. Whitehead J.K. Li S. Hammer R.P. Fields G.B. Triple-helical transition-state analogs: A new class of selective matrix metalloproteinase inhibitors J. Am. Chem. Soc. 2007 || [19]; PMID 28394608; doi:10.1021/acs.jmedchem.7b00018; 19. Bhowmick M. Tokmina-Roszyk D. Onwuha-Ekpete L. Harmon K. Robichaud T. Fuerst R. Stawikowska R. Steffensen B. Roush W.R. Wong H. Second Generation Triple-Helical Peptide Transition State Analog Mat; details: no or weak inhibition of MT1-MMP; ref [15],[19]; cited from earlier work
MMP-8 = biological target: T1, MMP-8 (Homo sapiens, UniProt P22894); design: method as in 2 sources, ref [19] = [19]; PMID 28394608; doi:10.1021/acs.jmedchem.7b00018; 19. Bhowmick M. Tokmina-Roszyk D. Onwuha-Ekpete L. Harmon K. Robichaud T. Fuerst R. Stawikowska R. Steffensen B. Roush W.R. Wong H. Second Generation Triple-Helical Peptide Transition State Analog Mat ||| ref [15],[19] = [15]; PMID 17672455; doi:10.1021/ja0715849; 15. Lauer-Fields J.L. Brew K. Whitehead J.K. Li S. Hammer R.P. Fields G.B. Triple-helical transition-state analogs: A new class of selective matrix metalloproteinase inhibitors J. Am. Chem. Soc. 2007 || [19]; PMID 28394608; doi:10.1021/acs.jmedchem.7b00018; 19. Bhowmick M. Tokmina-Roszyk D. Onwuha-Ekpete L. Harmon K. Robichaud T. Fuerst R. Stawikowska R. Steffensen B. Roush W.R. Wong H. Second Generation Triple-Helical Peptide Transition State Analog Mat; details: no or weak inhibition of MMP-8; ref [15],[19]; cited from earlier work
T1 construct: purchased R&D Systems
T1 sequence (P22894 101-467): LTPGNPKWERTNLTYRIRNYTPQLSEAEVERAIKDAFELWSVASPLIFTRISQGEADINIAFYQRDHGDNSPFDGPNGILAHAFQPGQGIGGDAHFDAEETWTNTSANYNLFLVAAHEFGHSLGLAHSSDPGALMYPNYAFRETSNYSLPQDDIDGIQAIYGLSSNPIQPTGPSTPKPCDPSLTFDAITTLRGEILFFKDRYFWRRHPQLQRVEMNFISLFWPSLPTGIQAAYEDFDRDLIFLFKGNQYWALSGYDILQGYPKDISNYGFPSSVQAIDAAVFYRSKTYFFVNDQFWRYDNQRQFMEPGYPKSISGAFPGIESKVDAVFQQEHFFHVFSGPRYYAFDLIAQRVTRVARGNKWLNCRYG

MMP-1 = biological target: MMP-1; design: method as in 2 sources, ref [19] = [19]; PMID 28394608; doi:10.1021/acs.jmedchem.7b00018; 19. Bhowmick M. Tokmina-Roszyk D. Onwuha-Ekpete L. Harmon K. Robichaud T. Fuerst R. Stawikowska R. Steffensen B. Roush W.R. Wong H. Second Generation Triple-Helical Peptide Transition State Analog Mat ||| ref [15],[19] = [15]; PMID 17672455; doi:10.1021/ja0715849; 15. Lauer-Fields J.L. Brew K. Whitehead J.K. Li S. Hammer R.P. Fields G.B. Triple-helical transition-state analogs: A new class of selective matrix metalloproteinase inhibitors J. Am. Chem. Soc. 2007 || [19]; PMID 28394608; doi:10.1021/acs.jmedchem.7b00018; 19. Bhowmick M. Tokmina-Roszyk D. Onwuha-Ekpete L. Harmon K. Robichaud T. Fuerst R. Stawikowska R. Steffensen B. Roush W.R. Wong H. Second Generation Triple-Helical Peptide Transition State Analog Mat; details: no or weak inhibition of MMP-1; ref [15],[19]; cited from earlier work
MMP-3 = biological target: MMP-3; design: method as in 2 sources, ref [19] = [19]; PMID 28394608; doi:10.1021/acs.jmedchem.7b00018; 19. Bhowmick M. Tokmina-Roszyk D. Onwuha-Ekpete L. Harmon K. Robichaud T. Fuerst R. Stawikowska R. Steffensen B. Roush W.R. Wong H. Second Generation Triple-Helical Peptide Transition State Analog Mat ||| ref [15],[19] = [15]; PMID 17672455; doi:10.1021/ja0715849; 15. Lauer-Fields J.L. Brew K. Whitehead J.K. Li S. Hammer R.P. Fields G.B. Triple-helical transition-state analogs: A new class of selective matrix metalloproteinase inhibitors J. Am. Chem. Soc. 2007 || [19]; PMID 28394608; doi:10.1021/acs.jmedchem.7b00018; 19. Bhowmick M. Tokmina-Roszyk D. Onwuha-Ekpete L. Harmon K. Robichaud T. Fuerst R. Stawikowska R. Steffensen B. Roush W.R. Wong H. Second Generation Triple-Helical Peptide Transition State Analog Mat; details: no or weak inhibition of MMP-3; ref [15],[19]; cited from earlier work
MMP-2 = biological target: T2, MMP-2 (Homo sapiens, UniProt P08253); details: 37 °C; ref [15],[19]; cited from earlier work
T2 construct: Recombinant MMP-2 and MMP-9 catalytic domain were purchased from Sigma-Aldrich; purchased Sigma-Aldrich
T2 sequence (P08253 110-660): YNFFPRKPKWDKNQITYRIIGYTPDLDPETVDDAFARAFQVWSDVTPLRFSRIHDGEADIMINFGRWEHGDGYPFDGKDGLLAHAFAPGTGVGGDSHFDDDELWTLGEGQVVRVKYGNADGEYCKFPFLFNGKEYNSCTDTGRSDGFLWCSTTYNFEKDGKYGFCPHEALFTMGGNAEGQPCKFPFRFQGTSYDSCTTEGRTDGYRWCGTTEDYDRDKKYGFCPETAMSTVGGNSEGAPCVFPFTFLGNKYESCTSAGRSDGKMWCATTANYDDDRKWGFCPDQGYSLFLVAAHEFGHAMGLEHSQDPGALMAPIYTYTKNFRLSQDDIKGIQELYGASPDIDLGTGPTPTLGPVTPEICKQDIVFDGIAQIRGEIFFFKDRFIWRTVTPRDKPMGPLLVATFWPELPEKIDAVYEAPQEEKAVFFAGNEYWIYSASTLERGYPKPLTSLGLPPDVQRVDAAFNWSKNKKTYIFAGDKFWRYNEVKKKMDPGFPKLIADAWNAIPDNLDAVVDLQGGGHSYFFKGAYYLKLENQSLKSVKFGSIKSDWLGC

MMP-9 = biological target: T3, MMP-9 (Homo sapiens, UniProt P14780); details: 37 °C; ref [15],[19]; cited from earlier work
T3 construct: Recombinant MMP-2 and MMP-9 catalytic domain were purchased from Sigma-Aldrich; purchased Sigma-Aldrich
T3 sequence (P14780 107-444 limits assumed, species assumed): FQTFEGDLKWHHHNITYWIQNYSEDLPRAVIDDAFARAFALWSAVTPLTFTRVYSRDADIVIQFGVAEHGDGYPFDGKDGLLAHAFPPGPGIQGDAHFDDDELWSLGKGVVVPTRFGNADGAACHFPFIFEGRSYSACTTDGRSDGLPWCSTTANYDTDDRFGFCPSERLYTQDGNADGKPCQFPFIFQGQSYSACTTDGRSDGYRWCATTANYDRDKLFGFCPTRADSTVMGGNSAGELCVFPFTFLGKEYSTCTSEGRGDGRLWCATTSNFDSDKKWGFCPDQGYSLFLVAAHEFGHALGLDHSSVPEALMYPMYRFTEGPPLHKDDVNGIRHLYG

MMP-13 = MMP-13 (Homo sapiens, UniProt P45452); details: no or weak inhibition of MMP-13; ref [15],[19]; cited from earlier work
[1] = ref [19]; cited from earlier work

| inhibition of caspase-11 activity (caspase-11; 5 μM inhibitor incubated with enzyme 2 h prior to substrate, 3 U/μL (1.08 μM) caspase-11, 250 μM acetyl-Trp-Glu-His-Asp-pNA, pH 6.5, 37 °C, absorbance 405 nm, result in words (up to 15 min)) | change in extent of caspase-11 inhibition over time (caspase-11; 5 μM inhibitor, 2 h pre-incubation, 1 h monitoring, data not shown) | Substance | inhibition of caspase-11 activity at early time points (caspase-11; 5 μM inhibitor, 2 h inhibitor pre-incubation (Figure 2), stated to be similar to no pre-incubation) | inhibition of caspase-11 activity at early time points (caspase-11; no inhibitor pre-incubation time, data not shown) | Ki (MT1-MMP) | Ki (MMP-8) | Ki (MMP-1) | Ki (MMP-3) | Ki (MMP-2) | Ki (MMP-9) | Ki (MMP-13) | efficacy in animal model of multiple sclerosis [1] |
| --- | --- | --- | --- | --- | --- | --- | --- | --- | --- | --- | --- | --- |
| completely inhibit enzymatic activity | – | Ac-LEVD-aldehyde (SMILES CC(=O)N[C@@H](CC(C)C)C(=O)N[C@@H](CCC(=O)O)C(=O)N[C@H](C(=O)N[C@H](C=O)CC(=O)O)C(C)C) [reference compound] | – | – | – | – | – | – | – | – | – | – |
| – | did not increase after 1 h | (Gly-Pro-Hyp)4-Gly-mep-Flp-Gly-Pro-Pro-GlyΨ{PO2H-CH2}Val-Val-Gly-Glu-Gln-Gly-Glu-Gln-Gly-Pro-Pro-Gly-mep-Flp-(Gly-Pro-Hyp)4-NH2 | no inhibition to occur at early time points | no inhibition to occur at early time points | 10 to 50 µM | 10 to 50 µM | 10 to 50 µM | 10 to 50 µM | 0.00224 µM | 0.00098 µM | 10 to 50 µM | efficacious in an animal model of multiple sclerosis |
